The results in this text go back to patent US20050197407A1, “Method and preparation for reducing irritation and/or inflammatory reaction in human skin” (PCR Technology Holdings, LC, priority 2004, published 2005).

This series relates to facial skin of humans. Kind of series: Retinoid irritation test: idebenone pre-treatment then prescription retinoid, clinician grading and TEWL. In kind it is in vivo. Here is the method: In a test, idebenone was applied to the facial skin of humans. Two different test sites were setup whereby, one site was applied with idebenone twice a day for 2 weeks followed by a 2 week application period of a prescription retinoid (once a day, as prescribed). The remaining site was applied for 2 weeks just the prescription retinoid (once a day, as prescribed). Each test site was evaluated by a trained clinician for irritation and roughness using a 0 (none) to 4 (severe) scale pre and post retinoid treatment. Additionally, transepidermal water loss measurements (TEWL) were also made at the same time as visual evaluations.
FIG. 1 graphically depicts the results of the test.

[1] abbreviates: facial skin, pre vs post 2 week retinoid treatment once a day, idebenone site pre-treated twice a day for 2 weeks.

As for `COC1=C(OC)C(=O)C(CCCCCCCCCCO)=C(C)C1=O` [Idebenone, 6-(10-hydroxydecyl)-2,3-dimethoxy-5-methyl-1,4-benzoquinone], under setting [1], the “increase in irritation (0 (none) to 4 (severe) scale, trained clinician)” value is “moderate to minimal increase”; the “increase in roughness (0 (none) to 4 (severe) scale, trained clinician)” value is on record as “moderate to minimal increase”; the “increase in transepidermal water loss measurements (TEWL)” value is reported as “moderate to minimal increase”. In addition, for the setting “idebenone used as a pre-treatment for 2 weeks”, the “irritation potential produced by the prescription retinoid” value is on record as “significantly reduced”.
